Data as given in patent publication US6552022B1, “Benzamide derivatives and their use as ApoB-100 secretion inhibitors” (SmithKline Beecham Corporation, priority 1998, dated 2003).

Tested on: not given
Experiment: not given
Conditions: not given

Row | SMILES | melting point [°C]
1 | Cc1ccc(C(=O)Nc2ccc(N3CCN(Cc4cccc(C#N)c4)CC3)cc2)c(-c2ccc(C(C)C)cc2)c1 [Example 2, 4′-Isopropyl-5-methyl-biphenyl-2-carboxylic Acid [4-[4-(3-cyano-benzyl)-piperazin-1-yl]-phenyl]-amide] | 167 to 169
2 | Cc1ccc(C(=O)Nc2ccc(N3CCN(Cc4ccc[nH]4)CC3)cc2)c(-c2ccc(C(F)(F)F)cc2)c1 [Example 64, 5-Methyl-4′-trifluoromethyl-biphenyl-2-carboxylic Acid [4-(4-(1H-pyrrol-2-ylmethyl)-piperazin-1-yl)-phenyl]-amide] | 196 to 198
3 | COc1ccc(-c2ccc(C(C)C)cc2)c(C(=O)Nc2ccc(N3CCN(CC(N)=O)CC3)cc2)c1 [Example 38, 4′-Isopropyl-4-methoxy-biphenyl-2-carboxylic Acid [4-(4-carbamoylmethyl-piperazin-1-yl)-phenyl]-amide] | 207 to 209
4 | O=C(Nc1ccc(N2CCN(Cc3cccc(-c4noc(C(F)(F)F)n4)c3)CC2)cc1)c1ccccc1-c1ccc(C(F)(F)F)cc1 [Example 75, 4′-Trifluoromethyl-biphenyl-2-carboxylic acid (4-{4-[3-(5-trifluoromethyl-[1,2,4]oxadiazol-3-yl)-benzyl]-piperazin-1-yl}-phenyl)-amide] | 188 to 190
5 | O=C(Nc1ccc(N2CCN(Cc3nccs3)CC2)cc1)c1ccccc1-c1ccc(C(F)(F)F)cc1 (hydrate or solvate) [Example 59, 4′-Trifluoromethyl-biphenyl-2-carboxylic acid [4-(4-thiazol-2-ylmethyl-piperazin-1-yl)-phenyl]-amide] | 187 to 189
6 | O=C(Nc1ccc(N2CCN(CCCO)CC2)cc1)c1ccccc1-c1ccc(C(F)(F)F)cc1 [Example 44, 4′-Trifluoromethyl-biphenyl-2-carboxylic acid [4-(4-(3-hydroxy-propyl)-piperazin-1-yl]-phenyl]-amide] | 208 to 210
7 | Cc1ccc(-c2ccc(C(F)(F)F)cc2)c(C(=O)Nc2ccc(N3CCN(Cc4cccc(C#N)c4)CC3)cc2)c1 | 120 to 124
8 | COc1cccc(C(=O)Nc2ccc(N3CCN(Cc4cccc(C#N)c4)CC3)cc2)c1OCc1ccc(C(F)(F)F)cc1 [Example 28, N-[4-[4-(3-Cyano-benzyl)-piperazin-1-yl]-phenyl]-3-methoxy-2-(4-trifluoromethyl-benzyloxy)-benzamide] | 118 to 119.5
9 | CCCN1CCN(c2ccc(NC(=O)c3ccccc3-c3ccc(C(F)(F)F)cc3)cc2)CC1 [Example 65, 4′-Trifluoromethyl-biphenyl-2-carboxylic acid [4-(4-propyl-piperazin-1-yl)-phenyl]-amide] | 207 to 209
10 | CC(C)c1ccc(-c2cc(Cl)ccc2C(=O)Nc2ccc(N3CCN(Cc4cccc(C#N)c4)CC3)cc2)cc1 [Example 7, 5-Chloro-4′-isopropyl-biphenyl-2-carboxylic acid [4-[4-(3-cyano-benzyl)-piperazin-1-yl]-phenyl]-amide] | 188 to 190
11 | O=C(Nc1ccc(N2CCN(Cc3ccccn3)CC2)cc1)c1ccccc1-c1ccc(C(F)(F)F)cc1 (hydrate or solvate) | 168 to 170
12 | COC(=O)c1cccc(CN2CCN(c3ccc(NC(=O)c4ccccc4-c4ccc(C(F)(F)F)cc4)cc3)CC2)c1 [Example 55, 4′-Trifluoromethyl-biphenyl-2-carboxylic acid [4-[4-(3-carbomethoxy-benzyl)-piperazin-1-yl]-phenyl]-amide] | 190 to 192
13 | N#Cc1cccc(CN2CCC(c3ccc(NC(=O)c4ccccc4-c4ccc(C(F)(F)F)cc4)cc3)CC2)c1 [Example 84, 4′-Trifluoromethyl-biphenyl-2-carboxylic Acid (4-[1-(3-cyano-benzyl)-piperidin-4-yl]-phenyl]-amide] | 124 to 126
14 | O=C(NCC(F)(F)F)c1cccc(CN2CCN(c3ccc(NC(=O)c4ccccc4-c4ccc(C(F)(F)F)cc4)cc3)CC2)c1 [Example 79, 4′-Trifluoromethyl-biphenyl-2-carboxylic Acid (4-{4-[3-(2,2,2-trifluoro-ethylcarbamoyl)-benzyl]-piperazin-1-yl}-phenyl)-amide] | 205 to 207
15 | Cc1cccc(C(=O)Nc2ccc(N3CCN(CC(N)=O)CC3)cc2)c1-c1ccc(C(F)(F)F)cc1 [Example 40, 6-Methyl-4′-trifluoromethyl-biphenyl-2-carboxylic acid [4-(4-carbamoylmethyl-piperazin-1-yl)-phenyl]-amide] | 196 to 198

The remaining lines, values ahead:

Row | melting point [°C] | SMILES
16 | 179 | COc1cccc(C(=O)Nc2ccc(N3CCN(Cc4cccc(C#N)c4)CC3)cc2)c1-c1ccc(C(C)C)cc1 [Example 3, 4′-Isopropyl-6-methoxy-biphenyl-2-carboxylic Acid [4-[4-(3-cyano-benzyl)-piperazin-1-yl]-phenyl]-amide]
17 | 192 | Cc1cccc(C(=O)Nc2ccc(N3CCN(Cc4cccc(C#N)c4)CC3)cc2)c1-c1ccc(C(F)(F)F)cc1 [Example 5, 6-Methyl-4′-trifluoromethyl-biphenyl-2-carboxylic Acid [4-[4-(3-cyano-benzyl)-piperazin-1-yl]-phenyl]-amide]
18 | 133 to 135 | CC(C)c1ccc(-c2ccccc2C(=O)Nc2ccc(N3CCN(Cc4cccc(C#N)c4)CC3)cc2)cc1
19 | 140 to 144 | Cc1ccc(-c2ccccc2C(=O)Nc2ccc(N3CCN(Cc4cccc(C#N)c4)CC3)cc2)cc1C
20 | 134 to 136 | COc1cccc(C(=O)Nc2ccc(N3CCN(Cc4cccc(C#N)c4)CC3)cc2)c1OCCCc1ccccc1 [Example 33, N-[4-[4-(3-Cyano-benzyl)-piperazin-1-yl]-phenyl]-3-methoxy-2-(3-phenyl-propoxy)-benzamide]
21 | 118 to 120 | COc1cccc(C(=O)Nc2ccc(N3CCN(Cc4cccc(C#N)c4)CC3)cc2)c1OCc1ccc(F)cc1 [Example 29, N-[4-[4-(3-Cyano-benzyl)-piperazin-1-yl]-phenyl]-2-(4-fluoro-benzyloxy)-3-methoxy-benzamide]
22 | 174 | N#Cc1cccc(CN2CCN(c3ccc(NC(=O)c4ccccc4-n4cccc4)cc3)CC2)c1 [Example 85, N-{4-[4-(3-Cyano-benzyl)-piperazin-1-yl]-phenyl}-2-pyrrol-1-yl-benzamide]
23 | 215 to 217 | COc1cccc(C(=O)Nc2ccc(N3CCN(Cc4cccc(C#N)c4)CC3)cc2)c1-c1ccc(C(F)(F)F)cc1 [Example 8, 6-Methoxy-4′-trifluoromethyl-biphenyl-2-carboxylic acid [4-[4-(3-cyano-benzyl)-piperazin-1-yl]-phenyl]-amide]
24 | 119 to 121 | N#Cc1cccc(CN2CCN(c3ccc(NC(=O)c4ccccc4OCCC4CCCCC4)cc3)CC2)c1 [Example 32, N-[4-[4-(3-Cyano-benzyl)-piperazin-1-yl]-phenyl]-2-(2-cyclohexyl-ethoxy)-benzamide]
25 | 133 to 134 | N#Cc1cccc(CN2CCN(c3ccc(NC(=O)c4ccccc4Oc4ccccc4)cc3)CC2)c1 (hydrate or solvate) [Example 14, N-[4-[4-(3-Cyano-benzyl)-piperazin-1-yl]-phenyl]-2-phenoxy-benzamide]
26 | 170 to 172 | N#Cc1cccc(CN2CCN(c3cccc(NC(=O)c4ccccc4-c4ccc(C(F)(F)F)cc4)c3)CC2)c1 [Example 36, 4′-Trifluoromethyl-biphenyl-2-carboxylic Acid [3-[4-(3-cyano-benzyl)-piperazin-1-yl]-phenyl]-amide]

Tested on: apoB-100
Experiment: Inhibition of apoB-100 secretion by primary human hepatocytes (35S-methionine labelling, SDS PAGE, Phosphorimager)
Format: cell-based
Conditions: 8 hours incubation, tested from 1 μM to 1.6 nM, secretion of radiolabeled apoB-100, untreated cells as controls
Description: The ability of the compounds of the invention to inhibit the production of apoB-100 by human hepatocytes in vitro is determined using primary human hepatocytes as a model system. The specificity of the compounds of the invention is established by comparing the effects on apoB-100, apoprotein A-1, and fibrinogen production. A specificity of at least 100 is preferred.
Primary human hepatocytes were seeded at 50 000 cells/well in 96 well plates. After an overnight adhesion phase, cells were incubated with compounds for 8 hours in RPMI medium containing 1% FCS, 4 μg/ml insulin, 100 nM dexamethasone and 50 μCi/ml ^35S-methionine. […] Production of radiolabeled apoB-100 and apoA-1 (used as a selectivity control) was quantified by analysis of supermatants using SDS AGE and exposure of gels onto Phosphorimager screens. Inhibition of apo-100 and apoA-1 secretion by compounds was calculated taking untreated cells as controls, and IC50 of each compound was determined on both apoproteins.

Row | SMILES | IC50 [µM]
27 | COc1cccc(C(=O)Nc2ccc(N3CCN(Cc4cccc(C#N)c4)CC3)cc2)c1-c1ccc(C(C)C)cc1 [Example 3, 4′-Isopropyl-6-methoxy-biphenyl-2-carboxylic Acid [4-[4-(3-cyano-benzyl)-piperazin-1-yl]-phenyl]-amide] | 0.013
28 | Cc1ccc(C(=O)Nc2ccc(N3CCN(Cc4cccc(-c5nc(C)no5)c4)CC3)cc2)c(-c2ccc(C(C)C)cc2)c1 [Example 6] | 0.018
29 | Cc1cccc(C(=O)Nc2ccc(N3CCN(Cc4cccc(C#N)c4)CC3)cc2)c1-c1ccc(C(C)C)cc1 [Example 4] | 0.012
30 | O=C(Nc1ccc(N2CCN(Cc3ccc[nH]3)CC2)cc1)c1ccccc1-c1ccc(C(F)(F)F)cc1 [Example 62, 4′-Trifluormethyl-biphenyl-2-carboxylic Acid [4-(4-(1H-pyrrol-2-ylmethyl)-piperazin-1-yl)-phenyl)-amide] | 0.01
31 | Cc1ccc(C(=O)Nc2ccc(N3CCN(Cc4ccc[nH]4)CC3)cc2)c(-c2ccc(C(C)C)cc2)c1 [Example 63, 4′-Isopropyl-5-methyl-biphenyl-2-carboxylic Acid [4-(4-(1H-pyrrol-2-ylmethyl)-25 piperazin-1-yl)-phenyl]-amide] | 0.02

Same assay, conditions: Homo sapiens, Hepatocyte, 8 h, 8 hours incubation, tested from 1 μM to 1.6 nM, secretion of radiolabeled apoB-100, untreated cells as controls

Row | SMILES | IC50 [µM]
32 | COc1cccc(C(=O)Nc2ccc(N3CCN(Cc4cccc(C#N)c4)CC3)cc2)c1-c1ccc(C(C)C)cc1 [Example 3, 4′-Isopropyl-6-methoxy-biphenyl-2-carboxylic Acid [4-[4-(3-cyano-benzyl)-piperazin-1-yl]-phenyl]-amide] | 0.018
33 | Cc1ccc(C(=O)Nc2ccc(N3CCN(Cc4cccc(C#N)c4)CC3)cc2)c(-c2ccc(C(C)C)cc2)c1 [Example 2, 4′-Isopropyl-5-methyl-biphenyl-2-carboxylic Acid [4-[4-(3-cyano-benzyl)-piperazin-1-yl]-phenyl]-amide] | 0.018
34 | Cc1cccc(C(=O)Nc2ccc(N3CCN(Cc4cccc(C#N)c4)CC3)cc2)c1-c1ccc(C(F)(F)F)cc1 [Example 5, 6-Methyl-4′-trifluoromethyl-biphenyl-2-carboxylic Acid [4-[4-(3-cyano-benzyl)-piperazin-1-yl]-phenyl]-amide] | 0.015
35 | Cc1ccc(C(=O)Nc2ccc(N3CCN(Cc4ccc[nH]4)CC3)cc2)c(-c2ccc(C(F)(F)F)cc2)c1 [Example 64, 5-Methyl-4′-trifluoromethyl-biphenyl-2-carboxylic Acid [4-(4-(1H-pyrrol-2-ylmethyl)-piperazin-1-yl)-phenyl]-amide] | 0.019
